Measurements from article PMC11375786, “Induction of Paraptotic Cell Death in Cancer Cells by Triptycene–Peptide Hybrids and the Revised Mechanism of Paraptosis II” (Biochemistry, 2024).
Where two headings read alike, the source gives them in different places. Numbered stars: 1 amine (or outer) side, 2 acyl side, 3 side chain; on linkers, the order of the positions; unused ones are H or OH. Bridge positions count the residues as written; N and C are the ends. Square brackets hold non-standard residues; d marks the D form. Peptide text beside a SMILES is read from it. I, II: the chains in the order shown. * marks the point of attachment. X1 = O=C(COc1cccc2c1C1c3c(OCC(=O)NCCCCCCCCN[*:2])cccc3C2c2cccc(OCC(=O)NCCCCCCCCN[*:3])c21)NCCCCCCCCN[*:1]; Cha = N[C@@H](CC1CCCCC1)C(=O)O; Cbz = O=C(OCc1ccccc1)*; CH2F = FC*

Key:
[1] = test system: Jurkat cells; assay: MTT assay of Jurkat cells treated with 4 or celastrol in the presence of inhibitors; format: cell-based; conditions: DIDS 75 or 100 μM, RuRed 75 μM; for Inhibition of 4-induced cell death in Jurkat cells: 4 2.5 μM 1 h, Z-VAD-fmk 15 μM, necrostatin-1 30 μM, 3-MA 10 μM, CCCP 40 μM, 2-APB 50 or 100 μM; for Inhibition of celastrol-induced cell death in Jurkat cells: celastrol 5 μM 24 h, 2-APB 50 μM
Experimental: (a) Jurkat cells: Jurkat cells (2.0 × 10^5 cells/mL) in RPMI 1640 medium with 10% FBS were pretreated with the inhibitors (Z-VAD-fmk (final concentration = 15 μM), necrostatin-1 (final concentration = 30 μM), 3-MA (final concentration = 10 μM), and DIDS (75 or 100 μM)) for 3 h or pretreated with other inhibitors (CCCP (40 μM), FCCP (40 μM), 2-APB (50 or 100 μM) and RuRed (75 μM)) for 1 h under 5% CO2 at 37 °C. After incubation, 4 (final concentration = 2.5 μM) was added to the cell suspension, which was then incubated for 1 h at 37 °C. To test the effect of celastrol, the cells were pretreated with the aforementioned inhibitors and then incubated with celastrol (5 μM) for 24 h. MTT reagent (5 mg/mL) in PBS (10 μL) was added to the cells. After incubation at 37 °C for 4 h, a formazan lysis solution (10% sodium dodecyl sulfate (SDS) in 0.01 N HCl) (100 μL) was added, and the resultant solution was incubated overnight under the same conditions, followed by measurement of the absorbance at 570 nm using a microplate reader (ARVO, PerkinElmer).

[2] = test system: HeLa-S3 cells; assay: MTT assay of HeLa-S3 cells treated with 4 or celastrol in the presence of inhibitors; format: cell-based, human; conditions: 4 5 μM 1 h; Z-VAD-fmk 100 μM, necrostatin-1 100 μM, 3-MA 5 mM, CCCP 160 μM, DIDS 75 or 100 μM
Experimental: (b) HeLa-S3 cells: HeLa-S3 cells (2.0 × 10^5 cells/mL) in MEM medium with 10% FBS were pretreated with the inhibitors (3-MA (5 mM), and DIDS (75 or 100 μM)) for 3 h or pretreated with other inhibitors (Z-VAD-fmk (100 μM), necrostatin-1 (100 μM), CCCP (160 μM), and FCCP (80 μM)) for 1 h under 5% CO2 at 37 °C. After the incubation, 4 (final concentration = 5 μM) was added to the cell suspension, which was then incubated for 1 h at 37 °C. Subsequent procedures were the same as those used for the Jurkat cells.

[3] = test system: A549 cells; assay: MTT assay of A549 cells treated with 4 or celastrol in the presence of inhibitors; format: cell-based, human; conditions: 4 10 μM 1 h; Z-VAD-fmk 100 μM, necrostatin-1 100 μM, 3-MA 1 mM, CCCP 250 μM, DIDS 250 μM
Experimental: (c) A549 cells: A549 cells (2.0 × 10^5 cells/mL) in DMEM medium with 10% FBS were pretreated with the inhibitors (3-MA (1 mM), and DIDS (250 μM)) for 3 h or pretreated with other inhibitors (Z-VAD-fmk (100 μM), necrostatin-1 (100 μM), CCCP (250 μM), and FCCP (10 μM)) for 1 h under 5% CO2 at 37 °C. After incubation, 4 (final concentration = 10 μM) was added to the cell suspension, which was then incubated for 1 h at 37 °C. Subsequent procedures were the same as those used for the Jurkat cells.

[4] = test system: HeLa-S3 cells; assay: cells
Experimental: (§1) HeLa S3 cells (human cervical carcinoma) were cultured in Minimum essential medium (MEM) containing 10% FBS, penicillin, and streptomycin. A549 cells (human lung carcinoma) and IMR90 cells (human fetal lung fibroblast) were cultured in Dulbecco’s modified Eagle’s medium (DMEM) with 10% FBS, penicillin, and streptomycin. All cells were cultured at 37 °C under a humidified atmosphere containing 5% CO2.
(§2) Jurkat, HeLa-S3, A549 cells (2.0 × 10^5 cells/mL) and IMR90 cells (1.0 × 10^5 cells/mL) were incubated in the presence of 3–7 for 1 h, and etoposide, cisplatin and celastrol for 24 h (50 μL) in cell culture medium under CO2 at 37 °C in 96-well plates (BD Falcon). MTT reagent (5 mg/mL) in PBS (10 μL) was then added to the cells. After incubation at 37 °C for 4 h, a formazan lysis solution (10% sodium dodecyl sulfate (SDS) in 0.01 N HCl) (100 μL) was added and the resultant solution was incubated overnight under the same conditions, which was followed by measurement of the absorbance at 570 nm using a microplate reader (ARVO, PerkinElmer).

[5] = test system: IMR90 cells; assay: cells
Experimental: as §1, §2

[6] = test system: Jurkat cells; assay: cells
Experimental: as §1, §2

[7] = test system: A549 cells; assay: cells
Experimental: as §1, §2

[8] = test system: labile Fe^2+ in mitochondria of Jurkat cells; assay: Mito-FerroGreen fluorescence microscopy in Jurkat cells; format: cell-based; conditions: 4 2.5 μM 1 h; celastrol 5 μM, etoposide 5 μM, cisplatin 100 μM 24 h
Experimental: (§3) Jurkat cells (2.0 × 10^5 cells) were treated with 4 (2.5 μM), etoposide (5 μM), cisplatin (100 μM) and celastrol (5 μM) and stained with Mito-FerroGreen (a probe for labile Fe^2+ in mitochondria) (5 μM) and zinquin (a probe for intracellular Zn^2+) (25 μM). The cell images were observed via fluorescence microscopy.

[9] = test system: intracellular Zn^2+ in Jurkat cells; assay: Zinquin fluorescence microscopy in Jurkat cells; format: cell-based; conditions: 4 2.5 μM 1 h; celastrol 5 μM, etoposide 5 μM, cisplatin 100 μM 24 h
Experimental: as §3

| EC50 ([4]; 1 h) [µM] | EC50 ([5]; 1 h) [µM] | EC50 ([6]; 1 h) [µM] | SMILES | Inhibition of 4-induced cell death in Jurkat cells [1] | Inhibition of 4-induced cell death in HeLa-S3 cells [2] | Inhibition of 4-induced cell death in A549 cells [3] | further results |
| --- | --- | --- | --- | --- | --- | --- | --- |
| – | – | – | CN1C(=O)C(Cc2c[nH]c3ccccc23)NC1=S (centres unmarked) [necrostatin-1] | negligibly inhibited | negligibly inhibited | negligibly inhibited | – |
| 3.3 ± 0.2 | > 25 | 1.2 ± 0.1 | NCCCC[C@H](NC(=O)[C@H](CC1CCCCC1)NC(=O)[C@H](CCCCN)NC(=O)[C@H](CC1CCCCC1)NC(=O)[C@@H](N)CCCCN)C(=O)NCC(=O)NCCCCCCCCNC(=O)COc1cccc2c1C1c3c(OCC(=O)NCCCCCCCCNC(=O)CNC(=O)[C@H](CCCCN)NC(=O)[C@H](CC4CCCCC4)NC(=O)[C@H](CCCCN)NC(=O)[C@H](CC4CCCCC4)NC(=O)[C@@H](N)CCCCN)cccc3C2c2cccc(OCC(=O)NCCCCCCCCNC(=O)CNC(=O)[C@H](CCCCN)NC(=O)[C@H](CC3CCCCC3)NC(=O)[C@H](CCCCN)NC(=O)[C@H](CC3CCCCC3)NC(=O)[C@@H](N)CCCCN)c21 [compound 6] (I: H-K[Cha]K[Cha]KG / II: H-K[Cha]K[Cha]KG / III: H-K[Cha]K[Cha]KG; linker I:C-II:C-III:C via X1) | – | – | – | – |
| – | – | – | NCCOB(c1ccccc1)c1ccccc1 [2-APB] | rather weak | – | – | Inhibition of celastrol-induced cell death in Jurkat cells [1]: did not significantly stop cell death |
| > 25 | > 25 | > 25 | NCCCC[C@H](NC(=O)[C@H](CCCCN)NC(=O)[C@@H](N)CCCCN)C(=O)N[C@@H](CC1CCCCC1)C(=O)NCC(=O)O [KKKChaG, H2N-KKKChaG] (H-KKK[Cha]G-OH; C-terminus assumed) | – | – | – | EC50 ([7]; 1 h): > 25 µM |
| – | – | – | O=S(=O)(O)c1cc(N=C=S)ccc1C=Cc1ccc(N=C=S)cc1S(=O)(=O)O [DIDS, 4,4′-diisothiocyano-2,2′-stilbenedisulfonic acid] | considerably inhibits | considerably inhibits | considerably inhibits | Inhibition of celastrol-induced cell death in Jurkat cells [1]: did not significantly stop cell death |
| – | – | – | Cn1cnc(N)c2ncnc1-2 [3-MA, 3-methyladenine] | negligibly inhibited | negligibly inhibited | negligibly inhibited | – |
| – | – | – | COC(=O)CC(NC(=O)C(C)NC(=O)C(NC(=O)OCc1ccccc1)C(C)C)C(=O)CF (stereo not drawn) [Z-VAD-fmk, benzyloxycarbonyl-VAD(OMe)-fluoromethylketone] (Cbz-Val-Ala-Asp(OMe)-CH2F; configuration not given here) | negligibly inhibited | negligibly inhibited | negligibly inhibited | – |
| – | – | – | COc1cc([C@@H]2c3cc4c(cc3[C@@H](O[C@@H]3O[C@@H]5CO[C@@H](C)O[C@H]5[C@H](O)[C@H]3O)[C@H]3COC(=O)[C@H]23)OCO4)cc(OC)c1O [etoposide] | – | – | – | EC50 ([7]; Homo sapiens, A549, read-out: EC50 against A549 cells): > 100 µM; EC50 ([4]; Homo sapiens, HeLa S3, 24 h, read-out: EC50 against HeLa-S3 cells): > 100 µM; EC50 ([5]; Homo sapiens, IMR-90, 24 h, read-out: EC50 against IMR90 cells): > 25 µM; EC50 ([6]; Homo sapiens, Jurkat, 24 h, read-out: EC50 against Jurkat cells): 3.1 ± 0.1 µM; Emission from Mito-FerroGreen (free Fe2+ in mitochondria) in Jurkat cells [8]: increases in both free-Fe^2+ and free-Zn^2+; Emission from zinquin (intracellular free Zn2+) in Jurkat cells [9]: increases in both free-Fe^2+ and free-Zn^2+ |
| – | – | – | N.N.N.N.N.N.N.N.N.N.N.N.N.N.[Cl-].[Cl-].[Cl-].[Cl-].[Cl-].[Cl-].[O-2].[O-2].[Ru+3].[Ru+3].[Ru+4] [RuRed, Ruthenium Red] | rather weak | – | – | Inhibition of celastrol-induced cell death in Jurkat cells [1]: did not significantly stop cell death |
| 2.7 ± 0.5 | > 12.5 | 2.1 ± 0.1 | N=C(N)NCCC[C@H](NC(=O)[C@H](CC1CCCCC1)NC(=O)[C@H](CCCNC(=N)N)NC(=O)[C@H](CC1CCCCC1)NC(=O)[C@@H](N)CCCNC(=N)N)C(=O)NCC(=O)NCCCCCCCCNC(=O)COc1cccc2c1C1c3c(OCC(=O)NCCCCCCCCNC(=O)CNC(=O)[C@H](CCCNC(=N)N)NC(=O)[C@H](CC4CCCCC4)NC(=O)[C@H](CCCNC(=N)N)NC(=O)[C@H](CC4CCCCC4)NC(=O)[C@@H](N)CCCNC(=N)N)cccc3C2c2cccc(OCC(=O)NCCCCCCCCNC(=O)CNC(=O)[C@H](CCCNC(=N)N)NC(=O)[C@H](CC3CCCCC3)NC(=O)[C@H](CCCNC(=N)N)NC(=O)[C@H](CC3CCCCC3)NC(=O)[C@@H](N)CCCNC(=N)N)c21 [compound 7] (I: H-R[Cha]R[Cha]RG / II: H-R[Cha]R[Cha]RG / III: H-R[Cha]R[Cha]RG; linker I:C-II:C-III:C via X1) | – | – | – | EC50 ([7]; 1 h): 1.5 ± 0.1 µM |
| 5.3 ± 0.5 | > 25 | 2.2 ± 0.5 | NCCCC[C@H](NC(=O)[C@H](CCCCN)NC(=O)[C@@H](N)CCCCN)C(=O)NCC(=O)NCC(=O)NCCCCCCCCNC(=O)COc1cccc2c1C1c3c(OCC(=O)NCCCCCCCCNC(=O)CNC(=O)CNC(=O)[C@H](CCCCN)NC(=O)[C@H](CCCCN)NC(=O)[C@@H](N)CCCCN)cccc3C2c2cccc(OCC(=O)NCCCCCCCCNC(=O)CNC(=O)CNC(=O)[C@H](CCCCN)NC(=O)[C@H](CCCCN)NC(=O)[C@@H](N)CCCCN)c21 [compound 3] | – | – | – | EC50 ([7]; 1 h): 8.6 ± 1.8 µM |
